This note sets out measurements from US8785457B2 (Cellzome Limited, priority 2009, dated 2014).

For data set [1], the system named is Delayed type hypersensitivity (DTH) reaction. The data set is described as follows: Delayed type hypersensitivity in mice (KLH, ear thickness). Format: in vivo. From the text:
The Delayed type hypersensitivity (DTH) reaction is observed when subjects are immunized with an antigen, and then subsequently challenged with the same antigen to induce a localized inflammation. The model can be inhibited by drugs affecting a range of immune and inflammatory mechanisms. In this instance, a DTH reaction is induced in mice using Keyhole Limpet Hemocyanin (KLH), measuring inflammation in the ear pinna. Keyhole Limpet Hemocyanin (KLH; Sigma, catalogue number H7017) preparation: […] Aliquots were stored at −20° C. For the first immunization (day 0) the KLH stock solution (10 mg/ml) was diluted to 0.5 mg/ml with PBS (1:20). Then a 1:1 mixture with Complete Freund's Adjuvant (CFA; Sigma catalogue number 5881) was prepared (final KLH concentration 0.25 mg/ml). For the second immunization (day 5) the KLH stock solution was diluted to 1 mg/ml with 0.9% NaCl (1:10). Mice (Balb/c ˜9 weeks of age) were immunized with 2×100 μl of a 1:1 emulsion of KLH in CFA (25 μg KLH/site) injected subcutaneously into the right and left flank. On day 5 post-injection, mice received a challenge of 10 μg KLH (in 10 μl physiological saline), injected intradermally into the right ear. On day 5, 6 and 7 the ear thickness was measured with a caliper. Measurements were performed one hour after compound administration in the morning. Compound CZC1 corresponding to example 34 of the present invention was dosed once daily orally (p.o.) from day 0 to day 7 (Table 10). Vehicle: 0.5% carboxymethylcellulose (CMC). Doses: 3, 10 and 30 mg/kg. Cyclosporine A (Calbiochem) was dosed twice daily orally (p.o., 8 am and 4 pm from day 0 to day 7). Vehicle: 5% DMSO, 0.5 CMC. Dose: 25 mg/kg. Control treatment: 5% DMSO, 0.5% CMC administered p.o. [table]

Data set [2] has as its system Escherichia coli strain WP2uvrA(pKM101). The data set can be described thus: Ames plate assay, WP2uvrA(pKM101). As for the experimental part:
Certain compounds of the invention were tested for their potential to induce gene mutations in bacterial strains of Salmonella typhimurium (strains TA1535, TA1537, TA98, TA100) and Escherichia coli (strain WP2uvrA(pKM101)) in a bacterial mutation assay in the absence and presence of metabolite activation (rat S9-mix). Compounds are tested at the following dose levels: 50, 150, 500, or 1500 μg/plate.
Vehicle control treatment is the vehicle used to prepare the test compound formulation diluted to the same extent as the test compound solution. Positive controls using known mutagens are included for each strain with and without rat S9 mix. Four plates are used for the vehicle control and two replicate plates per dose per strain for the treated groups and for each positive control. At the end of incubation the number of revertant colonies per plate are recorded and mean values calculated for each vehicle control, positive control and concentration of test compound used. Results are also expressed as a ratio of the mean values to the mean concurrent vehicle control value (i.e. fold increase).

As for `CCOC(=O)N1Cc2nc(-c3ccc(NC(=O)NC4CC4)cc3)nc(N3CCOC[C@@H]3C)c2C1` [Example 34, (S)-ethyl 2-(4-(3-cyclopropylureido)phenyl)-4-(3-methylmorpholino)-5H-pyrrolo[3,4-d]pyrimidine-6(7H)-carboxylate], the “increase in ear thickness” value in data set [1] (3 mg/kg p.o. once daily day 0 to day 7, 24 hours post-challenge) is “significantly reduced”; in data set [1] (10 mg/kg p.o. once daily day 0 to day 7, 24 hours post-challenge), “significantly reduced”; in data set [1] (30 mg/kg p.o. once daily day 0 to day 7, 24 hours post-challenge) it was “significantly reduced”. For the same compound, the “Ames plate assay WP2uvrA (pKM101) +S9” value is listed as “−” in data set [2] (+S9, 50 μg/Plate); “−” in data set [2] (+S9, 150 μg/Plate); “−” in data set [2] (+S9, 500 μg/Plate); “−” in data set [2] (+S9, 1500 μg/Plate). Also, the “Ames plate assay WP2uvrA (pKM101) −S9” value in data set [2] (−S9, 50 μg/Plate) was “−”; in data set [2] (−S9, 150 μg/Plate), “−”; in data set [2] (−S9, 500 μg/Plate), “−”; in data set [2] (−S9, 1500 μg/Plate), “−”.
